Measurements from patent US20250213547A1, “METHODS OF TREATING NEUROLOGICAL DISEASES” (priority 2022, published 2025).

Key:
[1] = Multiple rising dose study: safety (TEAEs) in healthy subjects over 14 days; type: in vivo, human
Method: Subjects were monitored during the study and a full review was conducted after each rising dose. Safety data monitoring included vitals, physical and visual examinations, electrocardiogram, BMI, and clinical laboratory tests. […] Percentages are rounded to one decimal place. A subject with two or more different adverse events (AE) within the same levels of the MedDRA term and treatment is counted only once at that level using the most related or severe incident. A TEAE is defined as an AE or SAE that occurs or gets worse after receiving the first dose of study drug and within 30 days after the last dose of study drug.

plasma 24HC = experiment: Single dose pharmacodynamics: plasma 24HC; type: in vivo, human
Method: The concentration of 24HC was measured by obtaining an 8 ml blood sample collected 30 minutes pre-dose time and 0.5, 1, 2, 4, 6, 8, 12, and 16 hours prior to dosing day, and then 30 minutes pre-dose time and at times 0.5, 1, 2, 4, 6, 8, 12, 16, 24, 48, 72, and 96 hours post-dose. Plasma 24HC levels were measured by incubating plasma in sodium hydroxide and methanol and then performing liquid-liquid extraction and HPLC-MS/MS multiple reaction monitoring. […] Assay quality control measures, parameter analyses, and statistical analyses were performed as described in example 3. […] All dosage groups returned to 24HC baseline values by 96 hours.

[2] = Source text: The datasets from the clinical trials described above were used in a population PK and PK/PD modeling analysis. Three PK samples were excluded from the analyses because their baseline values were over the limit of quantification. The ELEKTRA dataset contained 69 single-dose and 270 steady-state dose events. Individual variables from those studies were included in the dataset to determine significant covariates and their effect size. Subject variables included the study ID, patient ID, treatment, health status, and DEE disease type. Baseline demographic variables included age, body weight, body mass index, gender, race, and Chinese or Asian ethnic origin. Baseline laboratory variables included aspartate aminotransferase (AST), gamma-glutamyl transferase (GGT), alkaline phosphatase (ALP), bilirubin, creatinine, albumin, alpha-1-acid glycoprotein (A1-AGLP), estimated glomerular filtration rate (eGFR), and creatinine clearance (CrCl)) (see formulas in example 12). […] Another variable was the type of antiepileptic drugs patients were on concomitantly during the trial.
The dataset included 2193 observations from 173 subjects. Both PK and PK/PD parameters were analyzed as a mixed-effects population model using the computer program NONMEM. A mixed-effects model takes into account fixed value parameters and random-effect parameters. The first stage of the analysis began with using only data obtained from the oral solution studies in a structural and statistical base model to account for concentration changes over time and for between and within subject variability. Several different structural model types were tested and the structure of the omega complex was optimized. Omega, expressed as random effects variance, represents the difference between an individual's parameter value and the population value and describes the distribution of between subject variability across the population. The linear two-compartment model incorporates delayed first-order absorption from oral administration. Model parameters were absorption lag time (ALAG1), bioavailability (F1), elimination clearance (CL), absorption rate constant (KA), central volume (V2), inter-compartmental clearance (Q), and peripheral volume (V3). Random effects were estimated for F1, KA, Q, and V3. The omega matrix was restricted to a diagonal structure, wherein between parameter correlations are ignored. A combined additive and proportional residue error model was utilized to broadly reflect […].
The second stage of the analysis added data collected from the tablet formulation studies in adults.
The third stage of the analysis added the pediatric data collected from the ELEKTRA study. A range of different formulations and administration procedures were used for the pediatric patients, including swallowed mini-tablets, tablets, and crushed tablets administered through a gastrostomy tube. […] Next variables were screened separately by correlating the individual random effects with the base model. An F-test was used to determine the significance of the individual random effects with and without the variable. Candidates were further screened using a standard forward inclusion (α<0.05), backward deletion (α<0.01) procedure.

[3] = between subject variation as standard deviation

O=C(c1cccnc1-c1ccncc1)N1CCC(O)(Cc2ccccc2)CC1 [soticlestat]
Deaths, number of subjects (%) ([1]; 100 mg QD, n = 6): 0 subjects (%)
Deaths, number of subjects (%) ([1]; 300 mg BID, n = 6): 0 subjects (%)
Deaths, number of subjects (%) ([1]; 300 mg QD, n = 6): 0 subjects (%)
Deaths, number of subjects (%) ([1]; 400 mg QD, n = 6): 0 subjects (%)
Mild TEAEs, number of subjects (%) ([1]; 400 mg QD, n = 6): 4 (66.7) subjects (%)
Related TEAEs, number of subjects (%) ([1]; 400 mg QD, n = 6): 4 (66.7) subjects (%)
Deaths, number of subjects (%) ([1]; 600 mg QD, n = 6): 0 subjects (%)
Mild TEAEs, number of subjects ([1]; both, human, in vivo, 14 days): 12 subjects
Moderate TEAEs, number of subjects ([1]; both, human, in vivo, 14 days): 1 subjects
TEAEs mild and transient ([1]; both, human, in vivo, 14 days): 91%
TEAEs, number of subjects ([1]; both, human, in vivo, 14 days): 14 subjects
number of TEAEs reported ([1]; human, in vivo): Forty-five
Not related TEAEs, number of subjects ([1]; human, in vivo, 14 days): 1 subjects
Related TEAEs, number of subjects ([1]; human, in vivo, 14 days): 13 subjects
SAEs, number of subjects ([1]; human, in vivo, 14 days): 0 subjects
Severe TEAEs, number of subjects ([1]; human, in vivo, 14 days): 1 subjects
TEAEs leading to halt, number of subjects ([1]; human, in vivo, 14 days): 2 subjects
Deaths, number of subjects ([1]; soticlestat total, n = 30): 0 subjects
maximum 24HC decrease (plasma 24HC; 900 mg single dose, 16 hours post-dose): approximately 23%
AUEC96 decrease compared to placebo (plasma 24HC; single dose): approximately 28.7%
simulated change in AUC with twice the dosage ([2]; FIG. 21, reference ELEKTRA patient 100 mg BID): 130%
F1: BSV [2, 3]: 0.538
KA: BSV [2, 3]: 1.1
Q: BSV [2, 3]: 0.369
V3: BSV [2, 3]: 0.559
ALAG1: Non-OS formulation (%) ([2]; covariate effect on ALAG1): 25.2%
CL: Patient (%) ([2]; covariate effect on CL): −24.4%
F1: A1-AGLP exponent ([2]; covariate effect on F1): 0.739
F1: weight exponent ([2]; covariate effect on F1): −0.516
F1: Dose exponent ([2]; covariate effect on F1, fixed): 0.204
KA: BMI exponent ([2]; covariate effect on KA): 2.52
KA: Strong Inducer (%) ([2]; covariate effect on KA): −73.7%
KA: non-OS formulation (%) ([2]; covariate effect on KA): −45.7%
KA: Dose exponent ([2]; covariate effect on KA, fixed): −0.753
Q: Dose exponent ([2]; covariate effect on Q, fixed): −0.218
V3: Asian (%) ([2]; covariate effect on V3): −39.4%
V3: eGFI exponent ([2]; covariate effect on V3): −0.469
V3: Dose exponent ([2]; covariate effect on V3, fixed): −0.214
ALAG1 typical value ([2]; final population PK model): 0.131 h
F1: BSV explained by A1-AGLP (%) ([2]; final population PK model): 33.6%
KA typical value ([2]; final population PK model): 7.49 h⁻¹
Q typical value ([2]; final population PK model): 1.16 L/h
V2 typical value ([2]; final population PK model): 2.99 L
V3 typical value ([2]; final population PK model): 7.51 L
F1 typical value ([2]; final population PK model, fixed): 0.0216
CL typical value ([2]; human): 4.31 L/h
estimated weight exponent on steady state AUC ([2]; human): 0.516
typical value for CL/F ([2]; human): 150 L/h
typical value for V2/F (central volume distribution) ([2]; population model): 138.43 L
